Where two headings read alike, the source gives them in different places.
Experiments:
[1] = system: Key Broadleaf Weed and Crop Species; assay: Post-emergent Test II herbicidal activity (Table 15); type: in vivo; settings: post-emergence, 336 h, 14 d; for pest or weed control at 35 g/ha: 35 g ai/ha; for pest or weed control at 70 g/ha: 70 g ai/ha; for pest or weed control at 140 g/ha: 140 g ai/ha
Outline: (§1)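 Visual injury rating (0 = none, 100 = complete kill) taken 14 d after treatment, relative to untreated plants. Compounds in acetone/DMSO with crop oil concentrate and Triton X-155 were track-sprayed at 187 L/ha onto seedlings at the first-second true leaf stage.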

[2] = system: Key Grass and Sedge Weeds as well as Grass Crops; assay: Post-emergent Test II herbicidal activity (Table 16); type: in vivo; settings: post-emergence, 336 h, 14 d; for pest or weed control at 35 g/ha: 35 g ai/ha; for pest or weed control at 70 g/ha: 70 g ai/ha; for pest or weed control at 140 g/ha: 140 g ai/ha
Outline: as §1

[3] = Abutilon theophrasti, velvetleaf (Abutilon theophrasti), read-out: Visual Growth Reduction (%) 14 Days After Application, ABUTH
[4] = Amaranthus retroflexus, redroot pigweed (Amaranthus retroflexus), read-out: Visual Growth Reduction (%) 14 Days After Application, AMARE
[5] = Brassica napus, oilseed rape, canola (Brassica napus), read-out: Visual Growth Reduction (%) 14 Days After Application, BRSNN
[6] = Chenopodium album, lambsquarters (Chenopodium album), read-out: Visual Growth Reduction (%) 14 Days After Application, CHEAL
[7] = Euphorbia heterophylla, wild poinsettia (Euphorbia heterophylla), read-out: Visual Growth Reduction (%) 14 Days After Application, EPHHL
[8] = Helianthus annuus, sunflower (Helianthus annuus), read-out: Visual Growth Reduction (%) 14 Days After Application, HELAN
[9] = Cyperus esculentus, yellow nutsedge (Cyperus esculentus), read-out: Visual Growth Reduction (%) 14 Days After Application, CYPES
[10] = Echinochloa crus-galli, barnyardgrass (Echinochloa crus-galli), read-out: Visual Growth Reduction (%) 14 Days After Application, ECHCG
[11] = Oryza sativa, rice (Oryza sativa), read-out: Visual Growth Reduction (%) 14 Days After Application, ORYSA
[12] = Setaria faberi, giant foxtail (Setaria faberi), read-out: Visual Growth Reduction (%) 14 Days After Application, SETFA
[13] = Triticum aestivum, wheat, spring (Triticum aestivum), read-out: Visual Growth Reduction (%) 14 Days After Application, TRZAS
[14] = Zea mays, maize, corn (Zea mays), read-out: Visual Growth Reduction (%) 14 Days After Application, ZEAMX

SMILES	pest or weed control at 35 g/ha [1, 3] [%]	pest or weed control at 70 g/ha [1, 3] [%]	pest or weed control at 140 g/ha [1, 3] [%]	pest or weed control at 35 g/ha [1, 4] [%]	pest or weed control at 70 g/ha [1, 4] [%]	pest or weed control at 140 g/ha [1, 4] [%]	pest or weed control at 35 g/ha [1, 5] [%]	pest or weed control at 70 g/ha [1, 5] [%]	pest or weed control at 140 g/ha [1, 5] [%]	pest or weed control at 35 g/ha [1, 6] [%]	pest or weed control at 70 g/ha [1, 6] [%]	pest or weed control at 140 g/ha [1, 6] [%]	pest or weed control at 35 g/ha [1, 7] [%]	pest or weed control at 70 g/ha [1, 7] [%]	pest or weed control at 140 g/ha [1, 7] [%]	pest or weed control at 35 g/ha [1, 8] [%]	pest or weed control at 70 g/ha [1, 8] [%]	pest or weed control at 140 g/ha [1, 8] [%]	pest or weed control at 35 g/ha [2, 9] [%]	pest or weed control at 70 g/ha [2, 9] [%]	other results
COC(=O)c1nc(-c2ccc3cc[nH]c3c2F)nc(N)c1Cl [Compound 1.31]	45 to 59	60 to 74	60 to 74	60 to 74	95 to 100	95 to 100	85 to 94	95 to 100	95 to 100	95 to 100	95 to 100	95 to 100	95 to 100	95 to 100	95 to 100	30 to 44	45 to 59	60 to 74	0 to 29	0 to 29	pest or weed control at 140 g/ha [2, 9]: 0 to 29%; pest or weed control at 35 g/ha [2, 10]: 75 to 84%; pest or weed control at 70 g/ha [2, 10]: 75 to 84%; pest or weed control at 140 g/ha [2, 10]: 85 to 94%; pest or weed control at 35 g/ha [2, 11]: 0 to 29%; pest or weed control at 70 g/ha [2, 11]: 0 to 29%; pest or weed control at 140 g/ha [2, 11]: 0 to 29%; pest or weed control at 35 g/ha [2, 12]: 60 to 74%; pest or weed control at 70 g/ha [2, 12]: 75 to 84%; pest or weed control at 140 g/ha [2, 12]: 85 to 94%; pest or weed control at 35 g/ha [2, 13]: 75 to 84%; pest or weed control at 70 g/ha [2, 13]: 0 to 29%; pest or weed control at 140 g/ha [2, 13]: 30 to 44%; pest or weed control at 35 g/ha [2, 14]: 0 to 29%; pest or weed control at 70 g/ha [2, 14]: 0 to 29%; pest or weed control at 140 g/ha [2, 14]: 0 to 29%; melting point: 185 to 190 °C
COC(=O)c1nc(-c2ccc3cc[nH]c3c2F)cc(N)c1Cl [Compound 1.23, Methyl 4-amino-3-chloro-6-(7-fluoro-1H-indol-6-yl)picolinate]	95 to 100	95 to 100	95 to 100	95 to 100	95 to 100	95 to 100	60 to 74	75 to 84	85 to 94	95 to 100	95 to 100	95 to 100	95 to 100	95 to 100	95 to 100	60 to 74	75 to 84	85 to 94	0 to 29	0 to 29	pest or weed control at 140 g/ha [2, 9]: 0 to 29%; pest or weed control at 35 g/ha [2, 10]: 0 to 29%; pest or weed control at 70 g/ha [2, 10]: 0 to 29%; pest or weed control at 140 g/ha [2, 10]: 60 to 74%; pest or weed control at 35 g/ha [2, 11]: 0 to 29%; pest or weed control at 70 g/ha [2, 11]: 0 to 29%; pest or weed control at 140 g/ha [2, 11]: 0 to 29%; pest or weed control at 35 g/ha [2, 12]: 0 to 29%; pest or weed control at 70 g/ha [2, 12]: 0 to 29%; pest or weed control at 140 g/ha [2, 12]: 60 to 74%; pest or weed control at 35 g/ha [2, 13]: 0 to 29%; pest or weed control at 70 g/ha [2, 13]: 0 to 29%; pest or weed control at 140 g/ha [2, 13]: 30 to 44%; pest or weed control at 35 g/ha [2, 14]: 0 to 29%; pest or weed control at 70 g/ha [2, 14]: 0 to 29%; pest or weed control at 140 g/ha [2, 14]: 0 to 29%

From patent publication US20170050957A1, “4-AMINO-6-(HETEROCYCLIC)PICOLINATES AND 6-AMINO-2-(HETEROCYCLIC)PYRIMIDINE-4-CARBOXYLATES AND THEIR USE AS HERBICIDES” (Dow AgroSciences LLC, priority 2013, published 2017)
